Results: PubChem BioAssay (NCI)
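Five compound concentrations were applied to cells in 96-well plates for 48 hours; endpoints were derived by simple linear interpolation of the resulting dose-response curve. GI50 is the concentration that inhibits growth by half. TGI denotes the concentration required for complete inhibition of growth.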

How the values were obtained:
Experiment in all cases: growth of human tumour cells (NCI), 48 h
OVCAR-4 ovarian = tested on: OVCAR-4 ovarian
SW-620 colon = tested on: SW-620 colon
UACC-257 melanoma = tested on: UACC-257 melanoma
HL-60(TB) leukemia = tested on: HL-60(TB) leukemia
SNB-19 CNS = tested on: SNB-19 CNS
TK-10 renal = tested on: TK-10 renal
HT29 colon = tested on: HT29 colon
NCI/ADR-RES ovarian = tested on: NCI/ADR-RES ovarian
CAKI-1 renal = tested on: CAKI-1 renal
HCC-2998 colon = tested on: HCC-2998 colon

Row | SMILES | GI50 (OVCAR-4 ovarian) [µM] | TGI (OVCAR-4 ovarian) [µM] | GI50 (SW-620 colon) [µM] | TGI (SW-620 colon) [µM] | GI50 (UACC-257 melanoma) [µM] | TGI (UACC-257 melanoma) [µM] | GI50 (HL-60(TB) leukemia) [µM] | TGI (HL-60(TB) leukemia) [µM] | GI50 (SNB-19 CNS) [µM] | TGI (SNB-19 CNS) [µM] | GI50 (TK-10 renal) [µM] | TGI (TK-10 renal) [µM] | GI50 (HT29 colon) [µM] | TGI (HT29 colon) [µM] | GI50 (NCI/ADR-RES ovarian) [µM] | TGI (NCI/ADR-RES ovarian) [µM] | GI50 (CAKI-1 renal) [µM] | TGI (CAKI-1 renal) [µM] | GI50 (HCC-2998 colon) [µM] | TGI (HCC-2998 colon) [µM]
1 | N=c1ccc2nc3ccc(N)cc3sc-2c1 | 3.78 | 13.5 | 3.92 | 23.5 | 2.75 | 11.1 | 1.9 | 20.8 | 3.17 | 14.9 | 11.7 | 35.5 | 11.1 | 40.8 | 2.53 | 10.7 | 4.19 | 20.3 | 6.82 | 97.7
2 | Cc1ccc(S(=O)(=O)c2nc(-c3ccccc3)oc2S(C)(=O)=O)cc1 | 1.92 | 3.72 | 2.05 | 4.21 | 3.01 | 12.2 | 2 | 6.43 | 11.2 | 23.2 | 1.7 | 3.1 | 2.81 | 6.6 | 7.43 | 45 | 1.8 | 3.21 | 17.9 | 32.2
3 | CCCc1nc(Cl)nc(Cl)c1Cl | – | 0.289 | – | 2.17 | – | 2 | – | 0.359 | – | 2.57 | – | 4.71 | – | 1.56 | – | > 22.4 | – | 0.433 | – | 4.57
4 | CC(NC(=O)Cc1ccc(C(F)(F)P(=O)(OCc2ccc([N+](=O)[O-])o2)N(C)CCCCCl)cc1)c1ccc(OCC2CCCCC2)c(C(N)=O)c1 (configuration not stated) | 3.33 | 12 | 6.82 | 15.8 | 17.5 | 34.7 | 1.89 | 4.72 | 8.97 | 29.7 | 8.01 | 22.2 | 5.8 | 21.2 | 6.51 | > 93.4 | 15.8 | 48.4 | 3.25 | 9.11
5 | C/C(=C(/c1ccccc1)c1ccc(OCC(O)CNCCN2CCOCC2)cc1)c1ccccc1 (configuration not stated) | 3.82 | 14.4 | 1.77 | 3.36 | 2.02 | 4.07 | 1.95 | 4.04 | 4.77 | 17.8 | 2.69 | 7.93 | 2.03 | 4.86 | 4.92 | 17.2 | 1.67 | 3.49 | 1.93 | 3.43
6 | O=C(c1ccc2ccccc2c1)c1nc2cc(F)ccc2[n+]([O-])c1C(F)(F)F | 18.7 | 36.8 | 17.3 | 37 | 17.4 | 35.3 | 6.68 | 24.9 | 19.4 | 37.8 | 28.5 | 92.2 | 16.3 | 35.2 | 21.2 | 42.8 | 4.29 | 17.6 | 15.8 | 31.3
7 | Cn1c(=O)n(C)c2cc(CNCCNc3ccnc4cc(Cl)ccc34)ccc21 | 26.1 | > 100 | 34.6 | > 100 | 17.6 | 33.3 | 25.1 | 91.2 | 27.9 | > 100 | 40.2 | > 100 | 21.1 | > 100 | > 100 | > 100 | 36.3 | > 100 | 20.2 | 52.9
8 | COc1cc([C@@H]2c3cc4c(cc3[C@H](OC(C)=O)[C@H]3COC(=O)[C@@H]23)OCO4)cc(OC)c1OC | 2.11 | > 100 | 0.36 | > 100 | – | > 100 | 0.235 | – | 0.393 | > 100 | – | > 100 | 0.343 | – | 0.336 | – | 0.537 | > 100 | 0.285 | –
9 | COc1cc(F)ccc1-c1cc(Nc2cc(CS(C)(=N)=O)ccn2)ncc1F (configuration not stated) | 0.227 | – | 0.0559 | > 33.1 | 0.261 | > 100 | 0.0284 | 0.228 | 0.0644 | > 100 | 0.151 | > 100 | 0.0945 | > 100 | 0.166 | > 36.6 | 0.0438 | > 100 | 0.184 | –
10 | CN(Cc1ccc(F)cc1)c1ccc(CO)c(Cl)c1 | 2.22 | 19.7 | 5.14 | > 100 | 0.439 | 1.66 | 12.5 | 54 | 38.3 | > 100 | 0.203 | 0.825 | 8.38 | 67.1 | 17.7 | > 64.3 | 2.49 | 45.8 | 14.9 | 57
11 | C=C1C(=O)O[C@H]2[C@H]1CC/C(COC(=O)NCc1ccc(Cn3c(=O)sn(CCCCC)c3=O)cc1)=C\CC[C@@]1(C)O[C@@H]21 | 1.62 | 3.3 | 1.31 | 2.85 | 1.57 | 3.03 | 1.1 | 4.12 | 5.06 | 17.5 | 1.96 | 3.66 | 2.09 | 3.89 | 14.4 | 46.5 | 2.84 | 12.9 | 3.55 | 11.1
12 | ClCc1cccc(Cn2cnc3c(Cl)nc(Cl)nc32)c1 | 5.51 | 20.1 | 1.57 | 3.5 | 1.86 | 3.45 | 0.642 | > 100 | 1.96 | 4.17 | 1.74 | 3.95 | 2.39 | > 100 | 2.42 | 5.23 | 2.22 | 5.85 | 1.61 | 3.15
13 | CCN1[C@@H](C(=O)NC23CCC(C(=O)O)(CC2)CC3)[C@H](c2cccc(Cl)c2F)[C@]2(C(=O)Nc3cc(Cl)ccc32)C12CCCCC2 | 3.37 | 15.5 | 3.92 | 17.1 | 0.228 | 1.86 | 1.96 | 6 | 3.56 | 15.2 | 3.05 | 16.2 | 3.06 | 14.8 | 5.65 | 42.5 | < 0.0149 | 0.817 | 2.39 | 6.89
